In US7625948B2, “Ester compound and medicinal use thereof” (Japan Tobacco Inc., priority 2002, dated 2009):

How the values were obtained:
Syrian hamsters [1] = assay: Test Example 3: olive oil-loading test (inhibition of fat absorption, plasma TG); format: in vivo; details: Mesocricetus auratus, po; 100 mg/kg p.o.; plasma TG 4 hours after olive oil; read-out: Test Example 3 Inhibition of fat absorption after olive oil-loading in Hamster Inhibition rate (%)
[2] = target: T1, Microsomal triglyceride transfer protein (MTP) from bovine liver (Bos taurus, UniProt P55156); assay: Test Example 1: inhibition of interliposomal triglyceride (TG) transfer activity by MTP (also used for metabolites in Test Example 8); format: biochemical; details: MTP-mediated 14C-triolein transfer between liposomes, 37° C., one hour; read-out: Test Example 1 MTP inhibition IC50
T1 construct: from tissue; host or cells: bovine liver
T1 sequence (P55156 12-887): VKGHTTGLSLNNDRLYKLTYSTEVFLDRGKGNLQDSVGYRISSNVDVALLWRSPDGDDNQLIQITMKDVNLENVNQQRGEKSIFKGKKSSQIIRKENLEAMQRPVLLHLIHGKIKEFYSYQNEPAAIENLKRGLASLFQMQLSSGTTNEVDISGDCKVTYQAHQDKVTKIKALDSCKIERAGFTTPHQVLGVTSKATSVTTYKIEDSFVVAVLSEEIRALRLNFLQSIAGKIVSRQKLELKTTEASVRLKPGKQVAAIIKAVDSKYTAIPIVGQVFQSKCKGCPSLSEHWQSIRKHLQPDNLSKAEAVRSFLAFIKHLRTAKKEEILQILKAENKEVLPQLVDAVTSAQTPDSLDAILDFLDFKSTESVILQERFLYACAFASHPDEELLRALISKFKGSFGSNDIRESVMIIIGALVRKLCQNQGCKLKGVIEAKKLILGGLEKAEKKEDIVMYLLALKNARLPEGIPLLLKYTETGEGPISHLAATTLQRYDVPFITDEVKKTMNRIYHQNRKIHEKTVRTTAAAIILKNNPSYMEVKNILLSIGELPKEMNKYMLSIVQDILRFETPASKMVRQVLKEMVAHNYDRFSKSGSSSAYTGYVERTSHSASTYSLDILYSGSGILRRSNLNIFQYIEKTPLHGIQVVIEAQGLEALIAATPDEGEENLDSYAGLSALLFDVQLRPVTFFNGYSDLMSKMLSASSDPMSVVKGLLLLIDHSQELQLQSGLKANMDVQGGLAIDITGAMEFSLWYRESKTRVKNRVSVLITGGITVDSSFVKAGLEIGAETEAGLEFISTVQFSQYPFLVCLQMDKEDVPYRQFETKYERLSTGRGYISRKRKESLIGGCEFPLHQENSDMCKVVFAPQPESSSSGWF
T1 sequence (P05307 21-510 partner): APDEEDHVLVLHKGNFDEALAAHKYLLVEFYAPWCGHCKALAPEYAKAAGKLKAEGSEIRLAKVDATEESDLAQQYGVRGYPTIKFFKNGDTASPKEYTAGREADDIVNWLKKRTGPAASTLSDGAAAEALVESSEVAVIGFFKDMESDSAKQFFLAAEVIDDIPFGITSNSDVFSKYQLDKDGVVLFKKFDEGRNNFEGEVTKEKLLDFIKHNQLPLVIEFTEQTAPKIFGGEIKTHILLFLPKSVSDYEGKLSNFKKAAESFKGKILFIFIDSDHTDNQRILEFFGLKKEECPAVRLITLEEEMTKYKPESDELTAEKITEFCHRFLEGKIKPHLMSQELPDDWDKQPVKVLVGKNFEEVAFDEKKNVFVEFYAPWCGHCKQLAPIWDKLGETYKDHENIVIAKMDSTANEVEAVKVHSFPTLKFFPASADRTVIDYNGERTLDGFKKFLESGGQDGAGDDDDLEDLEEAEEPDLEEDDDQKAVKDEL
In short: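 Partially purified bovine liver MTP (DEAE chromatography) incubated 1 h at 37 °C, pH 7.4, with ^14C-triolein-labelled donor SUVs and unlabelled acceptor SUVs plus compound in DMSO. Acceptor radioactivity, blank-corrected, gave % inhibition versus DMSO; IC50 derived. Metabolites tested likewise.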

HepG2 cells = assay: Test Example 2: inhibition of apolipoprotein B secretion from HepG2 cells, ELISA (also used for metabolites in Test Example 8); format: cell-based; details: Homo sapiens, 24 hours, apo B in supernatant by ELISA, read-out: Test Example 2 Inhibition of apo B secretion IC50
In short: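 HepG2 cells cultured 24 h, then exposed 24 h to compounds or metabolites in medium with 0.5% DMSO. Secreted apo B in supernatant quantified by sandwich ELISA (HRP, ABTS, 405 nm) against purified human apo B standard; % inhibition vs DMSO group, IC50 derived.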

Japanese white rabbits = assay: Test Example 5: combination use test in cholesterol-loaded rabbit model (plasma cholesterol); format: in vivo; details: 1 mg/kg in high cholesterol diet, from grouping to the 4th day
Protocol: Japanese white rabbits (male, 19 weeks of age, JW, purchased from Kitayama Labes Co., Ltd.) were fed previously in such a way that they were fed a high cholesterol diet (0.3% cholesterol+3% peanut oil-added RC-4, Product of Oriental Yeast Co., Ltd.) of 70 g/day under limited feeding for one day. The rabbits thus fed were used as a cholesterol-loaded rabbit model, and the grouping of such model was carried out in such a way that there might be no variation in the amount of plasma cholesterol among each group (five rabbits/group). […] The rabbits were fed 70 g of each diet every morning. Blood was collected from auricular artery 6 hours after the feeding on the 4th day of the administration, and cholesterol level in plasma was assayed. In the table, increased amount of plasma cholesterol during from the time of grouping to the 4th day was shown.

Syrian hamsters [3] = assay: Test Example 3: olive oil-loading test (inhibition of fat absorption, plasma TG); format: in vivo; details: Mesocricetus auratus, po; 3 mg/kg p.o.; plasma TG 4 hours after olive oil; read-out: Test Example 3 Inhibition of fat absorption after olive oil-loading in Hamster Inhibition rate (%)
Protocol: Syrian hamsters (9-11 weeks of age) under non-fasted conditions were used in the test. Blood was collected previously from orbital venous plexus, and a sample was suspended in 0.5% methyl cellulose (vehicle) and the suspension was forced to be administered orally to the hamsters at a dose of 0.3, 1, 3 or 10 mg/2 mL/kg. Only vehicle in the same volume was administered to the control group. Olive oil (2 mL/kg) was forced to be administered orally 30 minutes after the administration of the sample, and blood was collected from orbital venous plexus 4 hours later. Plasma was recovered from the blood, and the amount of triglyceride (TG) in the plasma was determined by automatic analyzer (Hitachi Co.). The data was expressed in terms of ΔTG(mg/dL)=the value at 4th hr minus the value before administration. Inhibition rate (%) was calculated from the data obtained on the basis of the following equation.
Inhibition rate (%)=100×(1 minus ΔTG of sample group/ΔTG of control group).

IC50 [2] | IC50 (HepG2 cells) | Compound | inhibition in vivo at 100 mg/kg (Syrian hamsters [1]) | Increased amount of total cholesterol (Japanese white rabbits) | inhibition in vivo at 3 mg/kg (Syrian hamsters [3])
4 nM | 28 nM | CCNC(=O)C(CCOC(=O)Cc1cccc(NC(=O)c2ccccc2-c2ccc(C(F)(F)F)cc2)c1C)(C(=O)NCC)c1ccccc1 [Example 5-9] | 78% | – | –
1.3 nM | 5.1 nM | CCCNC(=O)C(CCOC(=O)Cc1cccc(NC(=O)c2ccccc2-c2ccc(C(F)(F)F)cc2)c1C)(C(=O)NCCC)c1ccccc1 [Example 5-11] | 64% | – | –
– | 0.53 nM | CCNC(=O)C(COC(=O)Cc1ccc(NC(=O)c2ccccc2-c2ccc(C(F)(F)F)cc2)c(C(=O)OC)c1)(C(=O)NCC)c1ccccc1 [Example 9-13] | – | – | 70%

The remaining lines, values behind:

Compound | IC50 [2] | IC50 (HepG2 cells) | inhibition in vivo at 100 mg/kg (Syrian hamsters [1]) | Increased amount of total cholesterol (Japanese white rabbits) | inhibition in vivo at 3 mg/kg (Syrian hamsters [3])
CC(C)CNC(=O)C(COC(=O)Cc1ccc(NC(=O)c2ccccc2-c2ccc(C(F)(F)F)cc2)cc1)(C(=O)NCC(C)C)c1ccccc1 [Example 1-66] | 16 nM | 9.3 nM | 52% | – | –
CCCNC(=O)C(COC(=O)Cc1ccc(NC(=O)c2ccccc2-c2ccc(C(F)(F)F)cc2)c(C)c1)(C(=O)NCCC)c1ccccc1 [Example 1-72] | 0.44 nM | 2.7 nM | 54% | – | –
CCC(C)(C)C(=O)O[C@H]1C[C@@H](C)C=C2C=C[C@H](C)[C@H](CC[C@@H]3C[C@@H](O)CC(=O)O3)[C@H]21 [Simvastatin, simvastatin, reference compound] | – | – | – | 48.6 mg/dL | –
CCOC(=O)C(COC(=O)Cc1ccc(NC(=O)c2ccccc2-c2ccc(C(F)(F)F)cc2)c(C)c1)(C(=O)OCC)c1ccccc1 [Example 1-3, 2-(2-{3-Methyl-4-[(4′-trifluoromethylbiphenyl-2-carbonyl)amino]phenyl}acetoxymethyl)-2-phenylmalonic acid diethyl ester] | 4.7 nM | 5.75 nM | 65% | – | –
CCNC(=O)C(COC(=O)Cc1ccc(NC(=O)c2ccccc2-c2ccc(C(F)(F)F)cc2)c(C)c1)(C(=O)NCC)c1ccccc1 [Example 1-45] | 0.39 nM | 0.46 nM | 71% | – | –
